Where two headings read alike, the source gives them in different places.
Experiments:
[1] = mouse, in vivo, sc, 50 mg/kg
[2] = mouse, in vivo, sc, 50 mg/kg; remark: listed apart in the source
[3] = mouse, in vivo, sc, 50 mg/kg; remark: listed apart in the source
[4] = rat, in vivo, sc, 50 mg/kg
[5] = rat, in vivo, sc, 50 mg/kg; remark: listed apart in the source
[6] = rat, in vivo, sc, 50 mg/kg; remark: listed apart in the source

Substance	ALT [1] [IU/L]	AST [1] [IU/L]	Bilirubin [1] [mg/dL]	Cholesterol [1] [mg/dL]	BUN [2] [mg/dL]	HCT [3] [%]	Lymphocyte [3] [cells/μL]	Neutrophil [3] [cells/μL]	Platelets [3]	RBC [3]	WBC [3]	hemoglobin [3] [g/dL]	monocytes [3] [cells/μL]	ALT [4] [IU/L]	AST [4] [IU/L]	Albumin [4]	Bilirubin [4] [mg/dL]	BUN [5] [mg/dL]	Creatinine [5] [mg/dL]	Total urine protein [5] [mg/dL]	also measured
ISIS 416860: MOE gapmer, nucleobases 1275 to 1318 of SEQ ID NO: 1 (Table 8) (antisense CGGACGGCATTGGTGCACAG; MOE gapmer, wing and gap sizes not given here)	189	160	0.23	152	25	51	4889	1291	937 10^3/μL	10 10^6/μL	7 10^3/μL	15	161	70	157	4	0.15	23	58	242	Urine protein/creatinine ratio [5]: 4.6; HCT [6]: 45%; Lymphocyte [6]: 13986; Neutrophil [6]: 1841; Platelets [6]: 669; RBC [6]: 7.8 10^6/μL; WBC [6]: 17 10^3/μL; hemoglobin [6]: 14.1 g/dL
ISIS 416861: MOE gapmer, nucleobases 1275 to 1318 of SEQ ID NO: 1 (Table 8) (antisense GCGGACGGCATTGGTGCACA; MOE gapmer, wing and gap sizes not given here)	38	85	0.27	133	23	48	5119	1122	836 10^3/μL	9 10^6/μL	7 10^3/μL	14	219	89	154	5	0.15	22	39	205	Urine protein/creatinine ratio [5]: 5.1; HCT [6]: 45%; Lymphocyte [6]: 12865; Neutrophil [6]: 1813; Platelets [6]: 1008; RBC [6]: 7.7 10^6/μL; WBC [6]: 15 10^3/μL; hemoglobin [6]: 14.6 g/dL
ISIS 416863: MOE gapmer, nucleobases 1275 to 1318 of SEQ ID NO: 1 (Table 8) (antisense CAGCGGACGGCATTGGTGCA; MOE gapmer, wing and gap sizes not given here)	41	101	0.24	118	22	48	5617	1330	1131 10^3/μL	9 10^6/μL	7 10^3/μL	14	226	47	78	4	0.13	29	73	269	Urine protein/creatinine ratio [5]: 3.8; HCT [6]: 45%; Lymphocyte [6]: 14669; Neutrophil [6]: 1720; Platelets [6]: 674; RBC [6]: 7.6 10^6/μL; WBC [6]: 17 10^3/μL; hemoglobin [6]: 14.1 g/dL
ISIS 416866: MOE gapmer, nucleobases 1275 to 1318 of SEQ ID NO: 1 (Table 8) (antisense CTGGCAGCGGACGGCATTGG; MOE gapmer, wing and gap sizes not given here)	36	120	0.29	113	22	51	4621	1201	1045 10^3/μL	9 10^6/μL	6 10^3/μL	15	211	41	78	4	0.16	22	85	486	Urine protein/creatinine ratio [5]: 6.2; HCT [6]: 44%; Lymphocyte [6]: 16834; Neutrophil [6]: 1916; Platelets [6]: 900; RBC [6]: 7.8 10^6/μL; WBC [6]: 20 10^3/μL; hemoglobin [6]: 14.0 g/dL
ISIS 416867: MOE gapmer, nucleobases 1275 to 1318 of SEQ ID NO: 1 (Table 8) (antisense ACTGGCAGCGGACGGCATTG; MOE gapmer, wing and gap sizes not given here)	45	82	0.21	144	20	47	6078	1404	1006 10^3/μL	10 10^6/μL	8 10^3/μL	14	188	47	126	4	0.17	22	70	217	Urine protein/creatinine ratio [5]: 3.1; HCT [6]: 45%; Lymphocyte [6]: 10405; Neutrophil [6]: 3044; Platelets [6]: 705; RBC [6]: 7.8 10^6/μL; WBC [6]: 14 10^3/μL; hemoglobin [6]: 14.0 g/dL
